Columns and labels:
human PDE10A full length = molecular target: T1, human PDE10A full length (Homo sapiens, UniProt Q9Y233); test: PDE10A Scintillation Proximity Assay (SPA), human PDE10A full length assay; assay type: biochemical; conditions: 50 nM cGMP + 50 nM [3H]-cGMP, 20 minutes at room temperature, read-out: PDE10A inhibition IC50
T1 construct: purchased Enzo Life Science, Lausen, Switzerland SE-534
Procedure: The following test was carried out in order to determine the activity of the compounds of the present invention. PDE10 activity of the compounds of the present invention was determined using a Scintillation Proximity Assay (SPA)-based method similar to the one previously described (Fawcett, L. et al., Proc Natl Acad Sci USA (2000) 97(7):3702-3707).
The human PDE10A full length assay was performed in 96-well micro titer plates. The reaction mixture of 50 μl contained 20 mM HEPES pH=7.5/10 mM MgCl2/0.05 mg/ml BSA (Sigma cat. #A-7906), 50 nM cGMP (Sigma, cat. #G6129) and 50 nM [^3H]-cGMP (GE Healthcare, cat. #TRK392 S.A. 13.2Ci/mmol), 3.75 ng/well PDE10A enzyme (Enzo Life Science, Lausen, Switzerland cat #SE-534) with or without a specific test compound. A range of concentrations of the potential inhibitor was used to generate data for calculating the concentration of inhibitor resulting in 50% of the effect (e.g. IC50, the concentration of the competitor inhibiting PDE10A activity by 50%). Non-specific activity was tested without the enzyme. The reaction was initiated by the addition of the substrate solution (cGMP and [^3H]-cGMP) and allowed to progress for 20 minutes at room temperature. The reaction was terminated by adding 25 μl of YSi-SPA scintillation beads (GE Healthcare, cat. #RPNQ0150) in 18 mM zinc sulphate solution (stop reagent). After 1 h under shaking, the plate was centrifuged one minute at 170 g to allow beads to settle. Afterwards, radioactive counts were measured on a Perkin Elmer TopCount Scintillation plate reader.

T1 sequence (Q9Y233 1-779 isoform Q9Y233-1): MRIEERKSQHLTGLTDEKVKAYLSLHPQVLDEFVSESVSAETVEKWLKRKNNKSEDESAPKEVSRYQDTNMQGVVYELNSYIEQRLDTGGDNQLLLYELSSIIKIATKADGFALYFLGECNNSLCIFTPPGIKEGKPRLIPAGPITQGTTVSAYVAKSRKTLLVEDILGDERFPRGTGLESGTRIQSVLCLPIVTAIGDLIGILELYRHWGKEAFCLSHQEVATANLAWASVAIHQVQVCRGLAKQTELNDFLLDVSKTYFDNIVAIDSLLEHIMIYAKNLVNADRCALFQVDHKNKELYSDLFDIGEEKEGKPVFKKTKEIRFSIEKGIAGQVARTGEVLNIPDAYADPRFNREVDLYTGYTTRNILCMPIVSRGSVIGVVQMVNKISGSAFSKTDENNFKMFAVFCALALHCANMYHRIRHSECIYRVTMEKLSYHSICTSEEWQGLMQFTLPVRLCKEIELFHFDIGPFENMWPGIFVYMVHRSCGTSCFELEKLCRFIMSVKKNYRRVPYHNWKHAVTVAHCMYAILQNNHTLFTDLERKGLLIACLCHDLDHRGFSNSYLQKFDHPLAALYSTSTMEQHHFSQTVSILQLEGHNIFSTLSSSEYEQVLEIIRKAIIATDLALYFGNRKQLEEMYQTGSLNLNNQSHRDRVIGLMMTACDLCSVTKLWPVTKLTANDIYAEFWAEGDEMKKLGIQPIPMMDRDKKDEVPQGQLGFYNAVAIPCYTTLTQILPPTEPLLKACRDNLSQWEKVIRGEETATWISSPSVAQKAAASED

| IC50 (human PDE10A full length) | melting point | Structure (SMILES) |
| --- | --- | --- |
| 51.9 nM | 272 to 273 °C | Cn1ncc(C(=O)N2C[C@H]3C[C@@H]2CO3)c1C(=O)Nc1ccn2nc(-c3cccnc3)nc2c1 (stereo in doubt) [Example 57, 2-Methyl-4-((1R,4R)-2-oxa-5-aza-bicyclo[2.2.1]heptane-5-carbonyl)-2H-pyrazole-3-carboxylic acid (2-pyridin-3-yl-[1,2,4]triazolo[1,5-a]pyridin-7-yl)-amide] |
| 14.6 nM | 243 to 247 °C | COC(=O)c1cnn(C)c1C(=O)Nc1ccn2nc(-c3ccccc3)nc2c1 [Example 1, methyl 1-methyl-5-(2-phenyl-[1,2,4]triazolo[1,5-a]pyridin-7-ylcarbamoyl)-1H-pyrazole-4-carboxylate] |
| 24.9 nM | > 300 °C | Cn1ncc(C(=O)O)c1C(=O)Nc1ccn2nc(-c3ccccc3)nc2c1 [Example 2, 1-Methyl-5-(2-phenyl-[1,2,4]triazolo[1,5-a]pyridin-7-ylcarbamoyl)-1H-pyrazole-4-carboxylic acid] |
| 0.71 nM | 243 to 245 °C | Cn1ncc(C(=O)N2CCC2)c1C(=O)Nc1ccn2nc(-c3ccccc3)nc2c1 [Example 3, 4-(Azetidine-1-carbonyl)-2-methyl-2H-pyrazole-3-carboxylic acid (2-phenyl-[1,2,4]triazolo[1,5-a]pyridin-7-yl)-amide] |
| 0.28 nM | 172 to 175 °C | COCCN(C)C(=O)c1cnn(C)c1C(=O)Nc1ccn2nc(-c3ccccc3)nc2c1 [Example 4, N4-(2-methoxyethyl)-N4,1-dimethyl-N5-(2-phenyl-[1,2,4]triazolo[1,5-a]pyridin-7-yl)-1H-pyrazole-4,5-dicarboxamide] |
| 0.5 nM | 193 to 194 °C | CCN(C)C(=O)c1cnn(C)c1C(=O)Nc1ccn2nc(-c3ccccc3)nc2c1 [Example 5, N4-ethyl-N4,1-dimethyl-N5-(2-phenyl-[1,2,4]triazolo[1,5-a]pyridin-7-yl)-1H-pyrazole-4,5-dicarboxamide] |
| 1.63 nM | 253 to 255 °C | CCNC(=O)c1cnn(C)c1C(=O)Nc1ccn2nc(-c3ccccc3)nc2c1 [Example 7, N4-ethyl-1-methyl-N5-(2-phenyl-[1,2,4]triazolo[1,5-a]pyridin-7-yl)-1H-pyrazole-4,5-dicarboxamide] |
| 1.88 nM | 232 to 234 °C | Cn1ncc(C(=O)N2CCC2)c1C(=O)Nc1ccn2nc(N3CCOCC3)nc2c1 [Example 8, 4-(Azetidine-1-carbonyl)-1-methyl-N-(2-morpholino-[1,2,4]triazolo[1,5-a]pyridin-7-yl)-1H-pyrazole-5-carboxamide] |
| 16.3 nM | 243 to 245 °C | Cc1c(NC(=O)c2c(C(=O)N3CCC3)cnn2C)ccn2nc(-c3ccccc3)nc12 [Example 9, 4-(Azetidine-1-carbonyl)-1-methyl-N-(8-methyl-2-phenyl-[1,2,4]triazolo[1,5-a]pyridin-7-yl)-1H-pyrazole-5-carboxamide] |
| 0.19 nM | 226 to 228 °C | Cc1cn2nc(-c3ccccc3)nc2cc1NC(=O)c1c(C(=O)N2CCC2)cnn1C [Example 10, 4-(Azetidine-1-carbonyl)-1-methyl-N-(6-methyl-2-phenyl-[1,2,4]triazolo[1,5-a]pyridin-7-yl)-1H-pyrazole-5-carboxamide] |
| 0.9 nM | > 250 °C | CN(C)C(=O)c1cnn(C)c1C(=O)Nc1ccn2nc(-c3ccccc3)nc2c1 [Example 11, 2-Methyl-2H-pyrazole-3,4-dicarboxylic acid 4-dimethylamide 3-[(2-phenyl-[1,2,4]triazolo[1,5-a]pyridin-7-yl)-amide]] |
| 0.13 nM | 210 to 215 °C | Cn1ncc(C(=O)N2CCCC2)c1C(=O)Nc1ccn2nc(-c3ccccc3)nc2c1 [Example 13, 1-Methyl-N-(2-phenyl-[1,2,4]triazolo[1,5-a]pyridin-7-yl)-4-(pyrrolidine-1-carbonyl)-1H-pyrazole-5-carboxamide] |
| 4.66 nM |  | Cn1ncc(C(=O)N2CCC2)c1C(=O)Nc1ccn2nc(-c3cccnc3F)nc2c1 [Example 110, 4-(Azetidine-1-carbonyl)-2-methyl-2H-pyrazole-3-carboxylic acid [2-(2-fluoro-pyridin-3-yl)-[1,2,4]triazolo[1,5-a]pyridin-7-yl]-amide] |
| 19.1 nM |  | Cn1ncc(C(=O)NC2CC2)c1C(=O)Nc1ccn2nc(N3CCOCC3)nc2c1 [Example 113, 2-Methyl-2H-pyrazole-3,4-dicarboxylic acid 4-cyclopropylamide 3-[(2-morpholin-4-yl-[1,2,4]triazolo[1,5-a]pyridin-7-yl)-amide]] |
| 2.29 nM |  | CN(CCF)c1nc2cc(NC(=O)c3c(C(=O)N4CCCC4)cnn3C)ccn2n1 [Example 115, 2-Methyl-4-(pyrrolidine-1-carbonyl)-2H-pyrazole-3-carboxylic acid {2-[(2-fluoro-ethyl)-methyl-amino]-[1,2,4]triazolo[1,5-a]pyridin-7-yl}-amide] |
| 1.11 nM |  | CCN(C)C(=O)c1cnn(C)c1C(=O)Nc1ccn2nc(-c3cccnc3)nc2c1 [Example 116, 2-Methyl-2H-pyrazole-3,4-dicarboxylic acid 4-(ethyl-methyl-amide)3-[(2-pyridin-3-yl-[1,2,4]triazolo[1,5-a]pyridin-7-yl)-amide]] |
| 5.06 nM |  | Cn1ncc(C(=O)N2CCOCC2)c1C(=O)Nc1ccn2nc(-c3cccc(F)n3)nc2c1 [Example 121, 2-Methyl-4-(morpholine-4-carbonyl)-2H-pyrazole-3-carboxylic acid [2-(6-fluoro-pyridin-2-yl)-[1,2,4]triazolo[1,5-a]pyridin-7-yl]-amide] |
| 6.21 nM |  | Cn1ncc(C(=O)N2CC3(COC3)C2)c1C(=O)Nc1ccn2nc(N3CCCC3)nc2c1 [Example 122, 2-Methyl-4-(2-oxa-6-aza-spiro[3.3]heptane-6-carbonyl)-2H-pyrazole-3-carboxylic acid (2-pyrrolidin-1-yl-[1,2,4]triazolo[1,5-a]pyridin-7-yl)-amide] |
| 54 nM |  | CN(c1nc2cc(NC(=O)c3c(C(=O)O)cnn3C)ccn2n1)C1CC1 [Example 125, 5-[2-(Cyclopropyl-methyl-amino)-[1,2,4]triazolo[1,5-a]pyridin-7-ylcarbamoyl]-1-methyl-1H-pyrazole-4-carboxylic acid] |
| 0.49 nM |  | CN(C(=O)c1cnn(C)c1C(=O)Nc1ccn2nc(N(C)C3CC3)nc2c1)C1CC1 [Example 126, 2-Methyl-2H-pyrazole-3,4-dicarboxylic acid 4-(cyclopropyl-methyl-amide)3-{[2-(cyclopropyl-methyl-amino)-[1,2,4]triazolo[1,5-a]pyridin-7-yl]-amide}] |
| 0.73 nM |  | CN(c1nc2cc(NC(=O)c3c(C(=O)N4CCC4)cnn3C)ccn2n1)C1CC1 [Example 127, 4-(Azetidine-1-carbonyl)-2-methyl-2H-pyrazole-3-carboxylic acid [2-(cyclopropyl-methyl-amino)-[1,2,4]triazolo[1,5-a]pyridin-7-yl]-amide] |
| 3.37 nM |  | CN(c1nc2cc(NC(=O)c3c(C(=O)N4CCOCC4)cnn3C)ccn2n1)C1CC1 [Example 128, 2-Methyl-4-(morpholine-4-carbonyl)-2H-pyrazole-3-carboxylic acid [2-(cyclopropyl-methyl-amino)-[1,2,4]triazolo[1,5-a]pyridine-7-yl]-amide] |
| 1.1 nM |  | Cn1ncc(C(=O)N2CCN3CCC2C3)c1C(=O)Nc1ccn2nc(-c3ccccc3)nc2c1 (stereo not drawn) [Example 129, 4-(1,4-Diaza-bicyclo[3.2.1]octane-4-carbonyl)-2-methyl-2H-pyrazole-3-carboxylic acid (2-phenyl-[1,2,4]triazolo[1,5-a]pyridin-7-yl)-amide] |
| 0.34 nM |  | Cn1ncc(C(=O)N2CCC2)c1C(=O)Nc1ccn2nc(-c3ccccc3OCCF)nc2c1 [Example 130, 4-(Azetidine-1-carbonyl)-2-methyl-2H-pyrazole-3-carboxylic acid {2-[2-(2-fluoro-ethoxy)-phenyl]-[1,2,4]triazolo[1,5-a]pyridin-7-yl}-amide] |
| 0.9 nM |  | Cn1ncc(C(=O)N2CCOCC2)c1C(=O)Nc1ccn2nc(-c3ccccc3OCCF)nc2c1 [Example 131, 2-Methyl-4-(morpholine-4-carbonyl)-2H-pyrazole-3-carboxylic acid {2-[2-(2-fluoro-ethoxy)-phenyl]-[1,2,4]triazolo[1,5-a]pyridin-7-yl}-amide] |
| 1.02 nM |  | COCCN(C)C(=O)c1cnn(C)c1C(=O)Nc1ccn2nc(-c3ccccc3OCCF)nc2c1 [Example 132, 2-Methyl-2H-pyrazole-3,4-dicarboxylic acid 3-({2-[2-(2-fluoro-ethoxy)-phenyl]-[1,2,4]triazolo[1,5-a]pyridin-7-yl}-amide) 4-[(2-methoxy-ethyl)-methyl-amide]] |
| 16.1 nM |  | Cn1ncc(C(=O)N2CCOCC2)c1C(=O)Nc1ccn2nc(N3CCCC3=O)nc2c1 [Example 133, Methyl-4-(morpholine-4-carbonyl)-N-(2-(2-oxopyrrolidin-1-yl)-[1,2,4]triazolo[1,5-a]pyridin-7-yl)-1H-pyrazole-5-carboxamide] |

Reference: patent publication US8349824B2, “Triazolopyridine compounds” (Hoffmann-La Roche Inc., priority 2010, dated 2013)
